Measurements taken from paper PMC12358834, “Structural basis for anaerobic alkane activation by a multisubunit glycyl radical enzyme” (Proceedings of the National Academy of Sciences of the …, 2025).

Experiments:
[1] = biological target: T1, MASS; (1-methylalkyl)succinate synthase; MASSα2βγ2δ complex (Azoarcus sp. HxN1, UniProt A9J4K4); assay: cryo-EM structure of the complex, […] Å; type: binding; details: active site of MASSα (αβγδ side); anaerobic; no alkane present; DTT modelled in hydrocarbon site; no glycyl radical activation described
T1 construct: gene masD; full-length subunits co-expressed in E. coli NiCo21(DE3); N-terminal His tag on MASSα; asymmetric alpha2-beta-gamma2-delta complex; [4Fe-4S] in beta and gamma, single Fe in delta; with (1-methylalkyl)succinate synthase beta subunit; (1-methylalkyl)succinate synthase gamma subunit; (1-methylalkyl)succinate synthase delta subunit (rubredoxin-like)

[2] = biological target: (1-methylalkyl)succinate synthase catalytic α-subunit (MASSα), protein product of masD (Azoarcus sp. strain HxN1); assay: cryo-EM structure; single-particle cryo-EM of the co-expressed, purified MASS complex (SEC fractions with dimeric MASSα), grids prepared anaerobically, 0.8 mg/mL, fumarate and DTT bound; 2.8 Å map (a first data set gave 7 Å)

T1 sequence (A9J4K4 1-839): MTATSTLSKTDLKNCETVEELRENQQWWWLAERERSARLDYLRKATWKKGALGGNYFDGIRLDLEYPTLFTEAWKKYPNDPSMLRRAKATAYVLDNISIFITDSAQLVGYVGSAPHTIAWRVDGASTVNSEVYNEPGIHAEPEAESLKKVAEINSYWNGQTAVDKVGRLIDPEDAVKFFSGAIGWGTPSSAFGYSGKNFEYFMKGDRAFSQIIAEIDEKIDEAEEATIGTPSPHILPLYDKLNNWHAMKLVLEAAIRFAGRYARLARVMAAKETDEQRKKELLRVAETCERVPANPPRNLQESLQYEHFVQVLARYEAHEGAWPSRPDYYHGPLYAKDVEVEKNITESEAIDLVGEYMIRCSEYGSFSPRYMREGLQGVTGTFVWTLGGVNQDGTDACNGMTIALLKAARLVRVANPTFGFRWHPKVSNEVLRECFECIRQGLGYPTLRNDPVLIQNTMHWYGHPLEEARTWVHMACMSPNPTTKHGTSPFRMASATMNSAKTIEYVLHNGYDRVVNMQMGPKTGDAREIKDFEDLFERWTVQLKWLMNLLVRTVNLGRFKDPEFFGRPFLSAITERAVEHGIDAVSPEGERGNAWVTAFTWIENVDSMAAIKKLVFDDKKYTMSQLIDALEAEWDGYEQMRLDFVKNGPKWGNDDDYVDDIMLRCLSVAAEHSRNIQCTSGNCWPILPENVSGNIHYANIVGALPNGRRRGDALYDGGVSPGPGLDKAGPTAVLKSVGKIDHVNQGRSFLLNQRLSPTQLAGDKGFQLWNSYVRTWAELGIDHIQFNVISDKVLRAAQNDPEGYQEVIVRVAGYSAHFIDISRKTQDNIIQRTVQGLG
T1 sequence (A9J4K2 1-61 partner): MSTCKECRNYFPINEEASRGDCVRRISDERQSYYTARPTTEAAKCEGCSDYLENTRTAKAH
T1 sequence (A9J4K0 1-120 partner): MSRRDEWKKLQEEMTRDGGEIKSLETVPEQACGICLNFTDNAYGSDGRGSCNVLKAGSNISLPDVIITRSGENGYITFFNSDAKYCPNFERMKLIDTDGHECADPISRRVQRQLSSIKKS
T1 sequence (A9J4K6 1-71 partner): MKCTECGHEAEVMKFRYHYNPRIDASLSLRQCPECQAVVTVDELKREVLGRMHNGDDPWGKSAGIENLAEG

| Compound | cryo-EM structure of the complex, 2.8 Å [1] | stoichiometry N [2] |
| --- | --- | --- |
| O=C(O)/C=C/C(=O)O [fumarate] | Density was observed for fumarate in a similar location as was observed for the fumarate |  |
| (1-methylalkyl)succinate synthase catalytic α-subunit (MASSα), protein product of masD (enzyme) |  | 2 |
